From ChEMBL document CHEMBL5233220, “A review of currently identified small molecule modulators of microRNA function” (Eur J Med Chem, 2020)
Several values for one entry are separate records, joined by “and”; a condition that tells them apart may be missing. Equal values may be shown once.

Columns and labels:
[1] = Binding affinity to pre-miR-21 (unknown origin) assessed as dissociation constant by fluorescence-based assay
[2] = Inhibition of miR-122 (unknown origin) assessed as relative light unit by luciferase assay
[3] = Inhibition of pre-miR-372 (unknown origin) by FRET assay
[4] = Inhibition of pre-miR-373 (unknown origin) by FRET assay
[5] = Inhibition of pre-miR-373 (unknown origin) at 250 uM by FRET assay relative to control
[6] = Inhibition of miR-27a (unknown origin) maturation at 5 uM relative to control
Protein lin-28 homolog A = target: T1, Protein lin-28 homolog A (Homo sapiens, UniProt Q9H9Z2); assay: Inhibition of LIN28A (unknown origin) by FRET assay
T1 sequence (Q9H9Z2 whole entry): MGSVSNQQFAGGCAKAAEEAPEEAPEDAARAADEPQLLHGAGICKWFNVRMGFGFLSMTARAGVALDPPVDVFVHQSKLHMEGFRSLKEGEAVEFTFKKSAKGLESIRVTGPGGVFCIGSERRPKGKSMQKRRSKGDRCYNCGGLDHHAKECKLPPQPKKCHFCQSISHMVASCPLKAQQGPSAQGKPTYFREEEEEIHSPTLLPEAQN

[7] = Binding affinity to pre-miR-21 (unknown origin) assessed as dissociation constant by microarray assay

O=c1cc(N2CCC(N3CCCC3)CC2)c2ccccc2o1
Kd [1]: 23 µM

CCCCCCNS(=O)(=O)c1ccc2c(c1)CCCN2
Activity [2]: 11.9 RLU

CC(=O)c1ccc(C(=O)Nc2ccc3ccccc3c2)cc1
Activity [2]: 6.7 RLU

NC[C@@H]1O[C@H](O[C@H]2[C@@H](O)[C@H](O[C@@H]3[C@@H](O)[C@H](N)C[C@H](N)[C@H]3O[C@H]3O[C@H](CN)[C@@H](O)[C@H](O)[C@H]3N)O[C@@H]2n2cc(Cn3cnc(-c4cccc(NC(=O)c5ccccc5)c4)c3)nn2)[C@H](N)[C@@H](O)[C@@H]1O
IC50 [3]: 8.3 µM | IC50 [4]: 8.96 µM | inhibition [5]: 20%

NC[C@@H]1O[C@H](O[C@H]2[C@@H](O)[C@H](O[C@@H]3[C@@H](O)[C@H](N)C[C@H](N)[C@H]3O[C@H]3O[C@H](CN)[C@@H](O)[C@H](O)[C@H]3N)O[C@@H]2CO)[C@H](N)[C@@H](O)[C@@H]1O [FRAMYCETIN]
IC50 [3]: 125 µM | IC50 [4]: 178 µM | inhibition [5]: 100% | inhibition [6]: 25%

CC1(C)Oc2cc(N3CCN(C(=O)OCc4ccccc4)CC3)c([N+](=O)[O-])cc2-c2c1cnn2-c1ccc(C(=O)O)cc1
IC50 (Protein lin-28 homolog A): 4.03 µM

CCCCNC(=O)Nc1cccc(-c2cn(Cc3cn([C@H]4O[C@@H](O[C@@H]5[C@@H](O)[C@H](N)C[C@H](N)[C@H]5O[C@H]5O[C@H](CN)[C@@H](O)[C@H](O)[C@H]5N)[C@H](O)[C@@H]4O[C@H]4O[C@@H](CN)[C@@H](O)[C@H](O)[C@H]4N)nn3)cn2)c1
IC50 [3]: 25.6 µM | IC50 [4]: 17.3 µM | inhibition [5]: 20%

OC(CNc1cccc(Cl)c1)Cn1c2ccc(Br)cc2c2cc(Br)ccc21 (centres undefined)
Kd [7]: 1.2 µM and 0.8 µM

CC(=O)N(C)c1cccc(-c2ccc3nnc(C)n3n2)c1
IC50 (Protein lin-28 homolog A): 8 µM

CCCOc1ccc(NCC(O)Cn2c3ccc(Br)cc3c3cc(Br)ccc32)cc1 (centres undefined)
Kd [7]: 2.2 µM

O=S(=O)(Nc1ccccc1)c1ccc2c(c1)CCCN2
Activity [2]: 9.9 RLU

CCOc1ccc(NCC(O)Cn2c3ccc(Br)cc3c3cc(Br)ccc32)cc1 (centres undefined)
Kd [7]: 1.2 µM

COc1ccccc1CCNC1CC(=O)C(c2ccc(C)cc2)C1=O (centres undefined)
Kd [1]: 38 µM

NC[C@H]1O[C@H](O[C@H]2[C@H](O)[C@@H](O[C@H]3O[C@H](CO)[C@@H](O)[C@H](N)[C@H]3O)[C@H](N)C[C@@H]2N)[C@H](N)C[C@@H]1O
inhibition [6]: 10%

C/C(=N\NC(=O)c1ccccn1)c1c(C)[nH]n(-c2ccccc2)c1=O
Kd [1]: 109 µM

CN[C@@H]1[C@H](O[C@H]2[C@H](O[C@H]3[C@H](O)[C@@H](O)[C@H](N=C(N)N)[C@@H](O)[C@@H]3N=C(N)N)O[C@@H](C)[C@]2(O)C=O)O[C@@H](CO)[C@H](O)[C@H]1O
inhibition [6]: 25%

O=C(Nc1ccc2ccccc2c1)c1ccc([N+](=O)[O-])cc1
Activity [2]: 6.2 RLU

CCCCNC(=O)Nc1ccc2oc(CCc3cn([C@H]4O[C@@H](O[C@@H]5[C@@H](O)[C@H](N)C[C@H](N)[C@H]5O[C@H]5O[C@H](CN)[C@@H](O)[C@H](O)[C@H]5N)[C@H](O)[C@@H]4O[C@H]4O[C@@H](CN)[C@@H](O)[C@H](O)[C@H]4N)nn3)nc2c1
IC50 [3]: 16.3 µM | IC50 [4]: 20.8 µM | inhibition [5]: 20%

CCOc1cccc2c1N[C@@H](c1ccc(C(=O)O)cc1)[C@H]1CC=C[C@@H]21
IC50 (Protein lin-28 homolog A): 7 µM

c1ccc(CN(CCN(Cc2ccccn2)Cc2ccccn2)Cc2ccccn2)nc1
IC50 (Protein lin-28 homolog A): 2.5 µM

NC[C@H]1O[C@H](O[C@H]2[C@H](O)[C@@H](O[C@H]3O[C@H](CO)[C@@H](O)[C@H](N)[C@H]3O)[C@H](N)C[C@@H]2N)[C@H](O)[C@@H](O)[C@@H]1O
inhibition [6]: 25%

OC(CNc1ccc(N2CCOCC2)cc1)Cn1c2ccc(Br)cc2c2cc(Br)ccc21 (centres undefined)
Kd [7]: 2.1 µM

NC[C@@H]1O[C@H](O[C@H]2[C@@H](O)[C@H](O[C@@H]3[C@@H](O)[C@H](N)C[C@H](N)[C@H]3O[C@H]3O[C@H](CN)[C@@H](O)[C@H](O)[C@H]3N)O[C@@H]2n2cc(CCC(=O)NCC(=O)Nc3nc4ccccc4[nH]3)nn2)[C@H](N)[C@@H](O)[C@@H]1O
IC50 [3]: 10.3 µM | IC50 [4]: 8.57 µM | inhibition [5]: 20%
